Consider 13 compounds from patent US10780090B2, “Heteroaryl compounds useful as inhibitors of SUMO activating enzyme” (Millennium Pharmaceuticals, Inc., priority 2014, dated 2020).

As a reminder, the IC50 is the point on the concentration scale where inhibition reaches its midpoint.

The target in the assay is recombinant human SAE enzyme (Homo sapiens (Human), UniProt Q9UBT2). The assay can be described thus: SAE HTRF enzyme assay. Type of assay: biochemical. The following applies: for Percent Inhibition: Concentration 0.111 μM; for IC50: class symbols A/B/C. The method, boiled down: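 Sumoylation of Ubc9-GST by SAE was followed at low ATP (0.5 μM), pH 7.5, 24° C. for 105 min. Product was detected by HTRF with antibody pairs against Flag and GST tags.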
Chain of recombinant human SAE enzyme (Q9UBT2 whole entry): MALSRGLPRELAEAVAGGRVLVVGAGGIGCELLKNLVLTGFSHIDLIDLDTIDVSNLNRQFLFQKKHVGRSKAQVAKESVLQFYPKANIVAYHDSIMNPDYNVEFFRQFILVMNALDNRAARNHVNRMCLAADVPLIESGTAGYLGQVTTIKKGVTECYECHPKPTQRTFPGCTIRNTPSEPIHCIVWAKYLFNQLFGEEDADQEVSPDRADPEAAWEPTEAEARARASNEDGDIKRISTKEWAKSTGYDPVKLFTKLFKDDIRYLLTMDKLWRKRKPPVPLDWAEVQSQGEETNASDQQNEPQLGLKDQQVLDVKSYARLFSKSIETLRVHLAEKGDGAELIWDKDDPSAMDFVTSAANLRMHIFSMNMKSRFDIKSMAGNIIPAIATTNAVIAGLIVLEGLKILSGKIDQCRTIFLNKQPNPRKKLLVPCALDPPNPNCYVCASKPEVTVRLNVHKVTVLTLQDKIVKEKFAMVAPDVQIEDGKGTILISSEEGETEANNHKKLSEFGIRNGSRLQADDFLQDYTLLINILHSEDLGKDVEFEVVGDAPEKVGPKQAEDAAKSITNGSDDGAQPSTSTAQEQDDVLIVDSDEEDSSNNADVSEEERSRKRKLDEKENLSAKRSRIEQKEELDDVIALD
Chain of recombinant human SAE enzyme (Q9UBE0 whole entry partner): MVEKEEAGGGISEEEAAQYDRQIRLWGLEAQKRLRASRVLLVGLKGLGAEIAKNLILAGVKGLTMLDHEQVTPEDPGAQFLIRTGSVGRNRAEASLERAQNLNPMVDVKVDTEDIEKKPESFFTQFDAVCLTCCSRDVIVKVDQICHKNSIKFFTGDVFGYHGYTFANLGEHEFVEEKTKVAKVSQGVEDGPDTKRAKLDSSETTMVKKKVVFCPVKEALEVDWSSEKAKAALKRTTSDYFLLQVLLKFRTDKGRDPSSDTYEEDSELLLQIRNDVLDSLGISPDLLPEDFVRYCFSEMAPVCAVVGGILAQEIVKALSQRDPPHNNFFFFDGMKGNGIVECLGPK

Molecules are shown by their SMILES.

Regarding `Cc1oc(C(=O)c2cncnc2N[C@@H]2C[C@H](COS(N)(=O)=O)[C@@H](O)C2)cc1[C@@H]1OCCc2ccc(Cl)cc21` (single isomer, unassigned) [I-270a, {(1R,2S,4R)-4-[(5-{4-[(1R)-7-chloro-3,4-dihydro-1H-isochromen-1-yl]-5-methyl-2-furoyl}pyrimidin-4-yl)amino]-2-hydroxycyclopentyl}methyl sulfamate or {(1R,2S,4R)-4-[(5-{4-[(1S)-7-chloro-3,4-dihydro-1H-isochromen-1-yl]-5-methyl-2-furoyl}pyrimidin-4-yl)amino]-2-hydroxycyclopentyl}methyl sulfamate], the “Percent Inhibition” value is recorded as 79 and the IC50 was 10 to 100 nM.

Consider `Cc1oc(C(=O)c2cncnc2N[C@@H]2C[C@H](COS(N)(=O)=O)[C@@H](O)C2)cc1[C@@H]1OCCc2ccc(Cl)cc21` (single isomer, unassigned) [I-270b, {(1R,2S,4R)-4-[(5-{4-[(1R)-7-chloro-3,4-dihydro-1H-isochromen-1-yl]-5-methyl-2-furoyl}pyrimidin-4-yl)amino]-2-hydroxycyclopentyl}methyl sulfamate or {(1R,2S,4R)-4-[(5-{4-[(1S)-7-chloro-3,4-dihydro-1H-isochromen-1-yl]-5-methyl-2-furoyl}pyrimidin-4-yl)amino]-2-hydroxycyclopentyl}methyl sulfamate], for which the “Percent Inhibition” value is listed as 99 and the IC50 is less than 10 nM.

For the compound `Cc1sc(C(=O)c2cncnc2N[C@@H]2C[C@H](COS(N)(=O)=O)[C@@H](O)[C@@H]2F)cc1[C@@H]1OCCc2ccccc21` (single isomer, unassigned) [I-271a, [(1R,2R,3R,4R)-4-{([5-({4-[(1R)-3,4-dihydro-1H-isochromen-1-yl]-5-methyl-2-thienyl)carbonyl)pyrimidin-4-yl]amino}-3-fluoro-2-hydroxycyclopentyl]methyl sulfamate or [(1R,2R,3R,4R)-4-{([5-({4-[(1S)-3,4-dihydro-1H-isochromen-l-yl]-5-methyl-2-thienyl}carbonyl)pyrimidin-4-yl]amino}-3-fluoro-2-hydroxycyclopentyl]methyl sulfamate], the “Percent Inhibition” value was 99 and the concentration for half-maximal inhibition (IC50) was less than 10 nM.

For the compound `Cc1oc(C(=O)c2cncnc2N[C@@H]2C[C@H](COS(N)(=O)=O)[C@@H](O)C2)cc1C1OCCc2ccccc21` (single isomer, unassigned) [I-272a, {(1R,2S,4R)-4-[(5-{4-[(1R)-3,4-dihydro-1H-isochromen-1-yl]-5-methyl-2-furoyl}pyrimidin-4-yl)amino]-2-hydroxycyclopentyl}methyl sulfamate or {(1R,2S,4R)-4-[(5-{4-[(1S)-3,4-dihydro-1H-isochromen-1-yl]-5-methyl-2-furoyl}pyrimidin-4-yl)amino]-2-hydroxycyclopentyl}methyl sulfamate], the “Percent Inhibition” value is recorded as 96 and the IC50 was less than 10 nM.

`Cc1oc(C(=O)c2cncnc2N[C@@H]2C[C@H](COS(N)(=O)=O)[C@@H](O)C2)cc1C1OCCc2ccccc21` (single isomer, unassigned) [I-272b, {(1R,2S,4R)-4-[(5-{4-[(1R)-3,4-dihydro-1H-isochromen-1-yl]-5-methyl-2-furoyl}pyrimidin-4-yl)amino]-2-hydroxycyclopentyl}methyl sulfamate or {(1R,2S,4R)-4-[(5-{4-[(1S)-3,4-dihydro-1H-isochromen-1-yl]-5-methyl-2-furoyl}pyrimidin-4-yl)amino]-2-hydroxycyclopentyl}methyl sulfamate]: the “Percent Inhibition” value amounted to 97 and the half-maximal inhibitory concentration (IC50) was less than 10 nM.

As to `NS(=O)(=O)OC[C@H]1C[C@@H](Nc2ncncc2C(=O)c2cc([C@@H]3OCCc4cc(F)c(F)cc43)cs2)C[C@@H]1O` (single isomer, unassigned) [I-273, [(1R,2S,4R)-4-{[5-({4-[(1R)-6,7-Difluoro-3,4-dihydro-1H-isochromen-1-yl]-2-thienyl}carbonyl)pyrimidin-4-yl]amino}-2-hydroxycyclopentyl]methyl sulfamate or [(1R,2S,4R)-4-{[5-({4-[(1S)-6,7-Difluoro-3,4-dihydro-1H-isochromen-1-yl]-2-thienyl}carbonyl)pyrimidin-4-yl]amino}-2-hydroxycyclopentyl]methyl sulfamate], the “Percent Inhibition” value was 99 and the IC50 was less than 10 nM.

As for `NS(=O)(=O)OC[C@H]1C[C@@H](Nc2ncncc2C(=O)c2cc(C3NCCc4ccc(Cl)cc43)cs2)C[C@@H]1O` (single isomer, unassigned) [I-274a, [(1R,2S,4R)-4-{[5-({4-[(1R)-7-chloro-1,2,3,4-tetrahydroisoquinolin-1-yl]-2-thienyl}carbonyl)pyrimidin-4-yl]amino}-2-hydroxycyclopentyl]methyl sulfamate or [(1R,2S,4R)-4-{[5-({4-[(1S)-7-chloro-1,2,3,4-tetrahydroisoquinolin-1-yl]-2-thienyl}carbonyl)pyrimidin-4-yl]amino}-2-hydroxycyclopentyl]methyl sulfamate], the “Percent Inhibition” value came out at 98 and the IC50 is less than 10 nM.

On to `NS(=O)(=O)OC[C@H]1C[C@@H](Nc2ncncc2C(=O)c2cc(C3NCCc4ccc(Cl)cc43)cs2)C[C@@H]1O` (single isomer, unassigned) [I-274b, [(1R,2S,4R)-4-{[5-({4-[(1R)-7-chloro-1,2,3,4-tetrahydroisoquinolin-1-yl]-2-thienyl}carbonyl)pyrimidin-4-yl]amino}-2-hydroxycyclopentyl]methyl sulfamate or [(1R,2S,4R)-4-{[5-({4-[(1S)-7-chloro-1,2,3,4-tetrahydroisoquinolin-1-yl]-2-thienyl}carbonyl)pyrimidin-4-yl]amino}-2-hydroxycyclopentyl]methyl sulfamate], for which the “Percent Inhibition” value is 81 and the concentration for half-maximal inhibition (IC50) fell in the range of 10 to 100 nM.

As to `NS(=O)(=O)OC[C@H]1C[C@@H](Nc2ncncc2C(=O)c2cc([C@@H]3OCCc4ccc(Cl)nc43)c(Cl)s2)C[C@@H]1O` (single isomer, unassigned) [I-276a, [(1R,2S,4R)-4-{[5-({5-chloro-4-[(8S)-2-chloro-5,8-dihydro-6H-pyrano[3,4-b]pyridin-8-yl]-2-thienyl}carbonyl)pyrimidin-4-yl]amino}-2-hydroxycyclopentyl]methyl sulfamate or [(1R,2S,4R)-4-{[5-({5-chloro-4-[(8R)-2-chloro-5,8-dihydro-6H-pyrano[3,4-b]pyridin-8-yl]-2-thienyl}carbonyl)pyrimidin-4-yl]amino}-2-hydroxycyclopentyl]methyl sulfamate], the “Percent Inhibition” value amounted to 28 and the IC50 lay within 100 to 1000 nM.

Regarding `NS(=O)(=O)OC[C@H]1C[C@@H](Nc2ncncc2C(=O)c2cc([C@@H]3OCCc4ccc(Cl)nc43)c(Cl)s2)C[C@@H]1O` (single isomer, unassigned) [I-276b, [(1R,2S,4R)-4-{[5-({5-chloro-4-[(8S)-2-chloro-5,8-dihydro-6H-pyrano[3,4-b]pyridin-8-yl]-2-thienyl}carbonyl)pyrimidin-4-yl]amino}-2-hydroxycyclopentyl]methyl sulfamate or [(1R,2S,4R)-4-{[5-({5-chloro-4-[(8R)-2-chloro-5,8-dihydro-6H-pyrano[3,4-b]pyridin-8-yl]-2-thienyl}carbonyl)pyrimidin-4-yl]amino}-2-hydroxycyclopentyl]methyl sulfamate], the “Percent Inhibition” value was 101 and the half-maximal inhibitory concentration (IC50) is less than 10 nM.

As for `Cc1sc(C(=O)c2cncnc2N[C@@H]2C[C@H](COS(N)(=O)=O)[C@@H](O)C2)cc1[C@@H]1OCCc2ccc(C3CC3)cc21` (single isomer, unassigned) [I-277a, [(1R,2S,4R)-4-{[5-({4-[(1R)-7-cyclopropyl-3,4-dihydro-1H-isochromen-1-yl]-5-methyl-2-thienyl}carbonyl)pyrimidin-4-yl]amino}-2-hydroxycyclopentyl]methyl sulfamate or [(1R,2S,4R)-4-{[5-({4-[(1S)-7-cyclopropyl-3,4-dihydro-1H-isochromen-1-yl]-5-methyl-2-thienyl}carbonyl)pyrimidin-4-yl]amino}-2-hydroxycyclopentyl]methyl sulfamate], the “Percent Inhibition” value is listed as 100 and the IC50 was less than 10 nM.

Take `Cc1sc(C(=O)c2cncnc2N[C@@H]2C[C@H](COS(N)(=O)=O)[C@@H](O)C2)cc1[C@@H]1OCCc2ccc(C3CC3)cc21` (single isomer, unassigned) [I-277b, [(1R,2S,4R)-4-{[5-({4-[(1R)-7-cyclopropyl-3,4-dihydro-1H-isochromen-1-yl]-5-methyl-2-thienyl}carbonyl)pyrimidin-4-yl]amino}-2-hydroxycyclopentyl]methyl sulfamate or [(1R,2S,4R)-4-{[5-({4-[(1S)-7-cyclopropyl-3,4-dihydro-1H-isochromen-1-yl]-5-methyl-2-thienyl}carbonyl)pyrimidin-4-yl]amino}-2-hydroxycyclopentyl]methyl sulfamate]: the “Percent Inhibition” value worked out at 81 and the concentration for half-maximal inhibition (IC50) lay in the range of 10 to 100 nM.

Regarding `NS(=O)(=O)OC[C@H]1C[C@@H](Nc2ncncc2C(=O)c2cc(C3SCCc4ccc(Cl)cc43)cs2)[C@H](O)[C@@H]1O` (single isomer, unassigned) [I-278a, [(1R,2R,3S,4R)-4-{[5-({4-[(1R)-7-chloro-3,4-dihydro-1H-isothiochromen-1-yl]-2-thienyl}carbonyl)pyrimidin-4-yl]amino}-2,3-dihydroxycyclopentyl]methyl sulfamate or [(1R,2R,3S,4R)-4-{[5-({4-[(1S)-7-chloro-3,4-dihydro-1H-isothiochromen-1-yl]-2-thienyl}carbonyl)pyrimidin-4-yl]amino}-2,3-dihydroxycyclopentyl]methyl sulfamate], the “Percent Inhibition” value is 77 and the IC50 is 10 to 100 nM.
